Data published in patent publication US12257251B2, “Use of FAK inhibitor in preparation of drug for treating tumors having NRAS mutation” (INXMED (NANJING) CO., LTD., priority 2019, dated 2025).

Legend:
[1] = system: human esophageal cancer cell line KYSE-270; test: Subcutaneous xenograft of human esophageal cancer cell line KYSE-270 in NMRI nude mice: tumor growth; type: in vivo, mouse; conditions: for Tumor shrinkage [x/y]: Paclitaxel 10 mg/Kg q7d
Experimental: 1.1. Model: Subcutaneous xenograft of human esophageal cancer cell line KYSE-270 in NMRI nude mice.
1.3. Cells: KYSE-270 is an esophageal cancer cell line (Public Health England, catalog number: 94072021). Cells were cultured in T175 tissue culture flasks containing 5% CO2 at 37° C. The medium was RPMI 1640+HAM F12 (1:1) supplemented with 2% FCS and 2 mM Glutamax. Passage was performed three times a week at a ratio of 1:2.
1.4. Mice: Mice were 8 to 10 week old female mice (BomTac: NMRI-Foxn1^nu) purchased from Taconic®, Denmark. Upon arrival in the animal room, the mice were allowed to acclimate for at least 5 days before being used for assay. The animals were housed under standard conditions (temperature: 21.5±1.5° C., humidity: 55+10%), 7 to 10 mice for each group. A standard diet and autoclaved tap water were provided for ad libitum feeding. A subcutaneous microchip implanted under isoflurane anesthesia was used to identify each mouse.
1.5. Random establishment of tumors: To establish subcutaneous tumors, KYSE-270 cells were harvested by centrifugation, washed and resuspended in PBS+5% FCS at a concentration of 5×10^7 cells/ml. Then 100 l of cell suspension containing 5×10^6 cells was injected subcutaneously into the right flank of mice (1 site per mouse). When tumors were well established and reached a volume of 94 to 252 mm^3, mice were randomly assigned to the treatment group and the control group (13 days after cell injection).
1.6. Administration: BI 853520 was suspended in 0.5% hydroxyethyl cellulose, which was administered intragastrically through gavage needle every day, and the dosage was 10 mL/Kg body weight. Paclitaxel was dissolved in saline (0.9% NaCl), which was administered intravenously in a volume of 10 ml/kg body weight. The suspension of BI853520 could be used for up to 7 days. Paclitaxel solution was stored at 6° C. and used for up to 14 days.
(§1) 1.7. Monitoring tumor growth and side effects: Tumor diameters were measured with calipers three times a week. The volume [mm^3] of each tumor was calculated according to the equation “tumor volume=length×diameter^2×π/6”. To monitor the side effects of the treatment, the mice were checked daily for abnormalities and their body weights were measured three times a week. For ethical reasons, animals with tumors larger than 1.5 cm in diameter, ulcerated tumors, or 20% body weight loss were euthanized.
Statistical assessment of tumor volume and body weight on day 13 was performed. Animal number 1 (control group) was excluded from the statistical evaluation because of weight loss and had to be euthanized early (day 9). Measured tumor volume was used as the target variable in the statistical analysis. The number of animals and the median, minimum and maximum tumor volumes in each group were calculated. For a quick overview of possible treatment effects, the median tumor volume for each treatment group T and the median tumor volume for the control group C were used to calculate TGI: TGI=100×[(Cd−C1)−(Td−T1)]/(Cd−C1) • wherein, C1, T1=median tumor volume in control and treatment groups at the start of the assay (day 1). • Cd, Td=median tumor volume in control and treatment groups at the end of the assay (day 13).
(§2) The wilcoxon test was used for comparison. For body weight, the percent change relative to initial body weight on day 1 was used as the target variable for statistical analysis. The number of animals, and the median, minimum and maximum weight changes in each group were calculated.
(§3) One-sided test to compare all treatment groups with control group was performed for observing: • reduction in tumor volume (inhibition of tumor growth, efficacy parameter) and • reduction in weight changes (weight loss, tolerance parameters).
Within each subtopic, p-values for the efficacy parameter were compared and adjusted for multiple times according to Bonferroni-Holm. The p-value for the tolerance parameter was kept constant so as not to overlook possible side effects. […]

[2] = Body weight change (tolerability) in the KYSE-270 xenograft study; type: in vivo, mouse
Experimental: as §1, §2, §3
Within each subtopic, p-values for the efficacy parameter were compared and adjusted for multiple times according to Bonferroni-Holm. The p-value for the tolerance parameter was kept constant so as not to overlook possible side effects. Significance level was fixed at α=5%. A p-value (adjusted) of less than 0.05 was considered to show a statistically significant difference between groups, and 0.05≤p-value<0.10 was considered as an indicative difference. Statistical evaluations were performed using the SAS software package version 9.4 (SAS Institute Inc., Cary NC, USA).

**Q.** With `CC(=O)O[C@H]1C(=O)[C@@]2(C)[C@H]([C@H](OC(=O)c3ccccc3)[C@]3(O)C[C@H](OC(=O)[C@H](O)[C@@H](NC(=O)c4ccccc4)c4ccccc4)C(C)=C1C3(C)C)[C@]1(OC(C)=O)CO[C@@H]1C[C@@H]2O` [Paclitaxel, reference compound] as the compound, how does the “Tumor shrinkage [x/y]” value ([1]; day 13) read?
**A.** 0/7

**Q.** And the “Tumor shrinkage [x/y]” value ([1]; day 13, listed as paclitaxel)?
**A.** none

**Q.** And the TGI ([1]; Paclitaxel 10 mg/Kg q7d i.v., day 13)?
**A.** 2%

**Q.** What about the Median tumor volume ([1]; paclitaxel 10 mg/kg once a week, day 13 (start 190 mm^3)) of the same compound?
**A.** 1033 mm^3

**Q.** What about the “Change in median weight” value ([2]; Paclitaxel 10 mg/Kg q7d, day 13 versus day 1) of the same compound?
**A.** −9.7%

**Q.** What about the “Reduction in the median body weight” value ([2]; Paclitaxel 10 mg/kg once a week, day 13, given as a decrease) of the same compound?
**A.** 9.7%
